Measurements published in ChEMBL document CHEMBL4041476, “Design, selective alkylation and X-ray crystal structure determination of dihydro-indolyl-1,2,4-triazole-3-thione and its 3-benzylsulfanyl analogue as potent anticancer agents” (Eur J Med Chem, 2017).
In brackets after ≈: the same amount, converted by molar mass.

Key:
MCF7 = experiment: Antiproliferative activity against human MCF7 cells after 48 hrs by SRB assay; format: functional, cell-based; settings: MCF7, 48 h
HepG2 = experiment: Antiproliferative activity against human HepG2 cells after 48 hrs by SRB assay; format: functional, cell-based; settings: HepG2, 48 h

| SMILES | IC50 (MCF7) [µg/mL] | IC50 (HepG2) [µg/mL] |
| --- | --- | --- |
| S=c1nc(-c2cc3ccccc3[nH]2)[nH][nH]1 | 13.8 (≈ 63.8 µM) | 15.9 (≈ 73.5 µM) |
| OCCn1nc(-c2cc3ccccc3[nH]2)nc1SCc1ccccc1 | 14.6 (≈ 41.7 µM) | 12.1 (≈ 34.5 µM) |
| c1ccc(CSc2nc(-c3cc4ccccc4[nH]3)n[nH]2)cc1 | 4.53 (≈ 14.8 µM) | 3.58 (≈ 11.7 µM) |
| C=CCn1nc(-c2cc3ccccc3[nH]2)nc1SCc1ccccc1 | 15.5 (≈ 44.7 µM) | 15.9 (≈ 45.9 µM) |
| c1ccc(CSc2nc(-c3cc4ccccc4[nH]3)nn2Cc2ccccc2)cc1 | 10.8 (≈ 27.2 µM) | 17.9 (≈ 45.1 µM) |
| c1ccc(CSc2nc(-c3cc4ccccc4[nH]3)n(Cc3ccccc3)n2)cc1 | 14.8 (≈ 37.3 µM) | 16.3 (≈ 41.1 µM) |
| COc1cccc2c1C(=O)c1c(O)c3c(c(O)c1C2=O)C[C@@](O)(C(=O)CO)C[C@@H]3O[C@H]1C[C@H](N)[C@H](O)[C@H](C)O1 [DOXORUBICIN] | 4 (≈ 7.36 µM) | 4 (≈ 7.36 µM) |

Results, then the molecule that gave them:

| IC50 (MCF7) [µg/mL] | IC50 (HepG2) [µg/mL] | SMILES |
| --- | --- | --- |
| 15.9 (≈ 25 µM) | 16.6 (≈ 26.1 µM) | CC(=O)N[C@@H]1[C@@H](OC(C)=O)[C@H](OC(C)=O)[C@@H](COC(C)=O)O[C@H]1n1nc(SCc2ccccc2)nc1-c1cc2ccccc2[nH]1 |
| 16.2 (≈ 44.4 µM) | 11.5 (≈ 31.6 µM) | OCCCn1nc(SCc2ccccc2)nc1-c1cc2ccccc2[nH]1 |
| > 100 | > 100 | CC(=O)N[C@@H]1[C@@H](OC(C)=O)[C@H](OC(C)=O)[C@@H](COC(C)=O)O[C@H]1n1nc(-c2cc3ccccc3[nH]2)nc1SCc1ccccc1 |
| 16 (≈ 25.1 µM) | 16.1 (≈ 25.3 µM) | CC(=O)OC[C@H]1O[C@@H](n2nc(SCc3ccccc3)nc2-c2cc3ccccc3[nH]2)[C@H](OC(C)=O)[C@@H](OC(C)=O)[C@@H]1OC(C)=O |
